Target: T1, human M2 receptor (Homo sapiens, UniProt P08172)
T1 sequence (P08172 1-466): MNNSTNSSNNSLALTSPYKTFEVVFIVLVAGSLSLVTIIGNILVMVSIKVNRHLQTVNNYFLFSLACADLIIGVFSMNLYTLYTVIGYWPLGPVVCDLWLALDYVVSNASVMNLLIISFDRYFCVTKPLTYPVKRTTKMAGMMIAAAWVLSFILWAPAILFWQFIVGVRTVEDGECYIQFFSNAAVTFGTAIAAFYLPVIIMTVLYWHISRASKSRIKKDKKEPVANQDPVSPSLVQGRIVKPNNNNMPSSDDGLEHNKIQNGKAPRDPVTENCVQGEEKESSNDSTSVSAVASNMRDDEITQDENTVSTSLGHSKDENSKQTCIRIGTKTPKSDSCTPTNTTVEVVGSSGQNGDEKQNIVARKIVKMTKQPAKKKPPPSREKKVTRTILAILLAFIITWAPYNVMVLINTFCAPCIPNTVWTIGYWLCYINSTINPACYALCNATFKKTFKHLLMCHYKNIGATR
Assay: Functional M2-GIRK1/4 activation test: allosteric potency (EC50) and efficiency
Settings: for EC50: Receptor activity EC50, CHO-DUKX-M2-GIRK cells, acetylcholine at EC20, in some cases mean of two or more determinations; for Emax: read-out: Efficiency, boosting of the acetylcholine effect at EC20 acetylcholine concentration; for Emax / Efficiency: CHO-DUKX-M2-GIRK cells; for Efficiency: boosting of the acetylcholine effect at EC20 acetylcholine concentration

Row | EC50 [nM] | Emax [%] | Efficiency [%] | Structure (SMILES)
1 | 26 | 100 |  | CC(C)(C)[C@H](NC(=O)c1cn(-c2ncc(F)cc2F)c2nc(N3CCNC3=O)ccc2c1=O)C(F)(F)F [Example 100, 1-(3,5-Difluoropyridin-2-yl)-4-oxo-7-(2-oxoimidazolidin-1-yl)-N-[(2S)-1,1,1-trifluoro-3,3-dimethylbutan-2-yl]-1,4-dihydro-1,8-naphthyridine-3-carboxamide]
2 | 44 |  | 91.50 | CC(NC(=O)c1cn(-c2ncc(F)cc2F)c2nc(N3C[C@@H](O)CC3=O)ccc2c1=O)C(F)(F)C(F)(F)F (single isomer, unassigned) [Example 78]
3 | 400 | 94.5 |  | CC[C@@H](NC(=O)c1cn(-c2ncc(F)cc2F)c2nc(N3CCCC(O)C3)ccc2c1=O)C(F)(F)F (mixture of isomers) [Example 117, 1-(3,5-Difluoropyridin-2-yl)-7-[3-hydroxypiperidin-1-yl]-4-oxo-N-[(2R)-1,1,1-trifluorobutan-2-yl]-1,4-dihydro-1,8-naphthyridine-3-carboxamide]
4 | 260 | 100 |  | CC(NC(=O)c1cn(-c2ncc(F)cc2F)c2nc(N3C[C@@H](O)CC3=O)ccc2c1=O)C(F)(F)C(F)(F)F (single isomer, unassigned) [Example 77]
5 | 400 | 89.5 |  | CC1(C)C(=O)N(c2ccc3c(=O)c(C(=O)N[C@H](C4CC4)C(F)(F)F)cn(-c4ncc(F)cc4F)c3n2)C2(CC2)C1O (stereo partly drawn) [Example 32]
6 | 19 | 100 |  | CC(C)(C)[C@@H](NC(=O)c1cn(-c2ncc(F)cc2F)c2nc(N3C[C@@H](O)[C@H](O)C3)ccc2c1=O)C(F)(F)F [Example 86, 1-(3,5-Difluoropyridin-2-yl)-7-[(3R,4R)-3,4-dihydroxypyrrolidin-1-yl]-4-oxo-N-[(2R)-1,1,1-trifluoro-3,3-dimethylbutan-2-yl]-1,4-dihydro-1,8-naphthyridine-3-carboxamide]
7 | 21 | 96.5 |  | CC[C@H](NC(=O)c1cn(-c2ncc(F)cc2F)c2nc(N3CC[C@H](F)C3)ccc2c1=O)C(F)(F)F [Example 129, 1-(3,5-Difluoropyridin-2-yl)-7-[(3S)-3-fluoropyrrolidin-1-yl]-4-oxo-N-[(2S)-1,1,1-trifluorobutan-2-yl]-1,4-dihydro-1,8-naphthyridine-3-carboxamide]
8 | 375 | 88 |  | O=C(NC1(C(F)(F)F)CCC1)c1cn(-c2ncc(F)cc2F)c2nc(N3CCNC3=O)ccc2c1=O [Example 150, 1-(3,5-Difluoropyridin-2-yl)-4-oxo-7-(2-oxoimidazolidin-1-yl)-N-[1-(trifluoromethyl)cyclobutyl]-1,4-dihydro-1,8-naphthyridine-3-carboxamide]
9 | 3100 | 90.5 |  | CC1(NC(=O)c2cn(-c3ncc(F)cc3F)c3nc(N4CCNC4=O)ccc3c2=O)CC(F)(F)C1 [Example 171, N-(3,3-Difluoro-1-methylcyclobutyl)-1-(3,5-difluoropyridin-2-yl)-4-oxo-7-(2-oxoimidazolidin-1-yl)-1,4-dihydro-1,8-naphthyridine-3-carboxamide]

The remaining lines, values behind:

Row | Structure (SMILES) | EC50 [nM] | Emax [%] | Efficiency [%]
10 | O=C(NC(C(F)(F)F)C(F)(F)F)c1cn(-c2ncc(F)cc2F)c2nc(N3C[C@H](O)[C@@H](O)C3)ccc2c1=O [Example 60, 1-(3,5-Difluoropyridin-2-yl)-7-[(3S,4S)-3,4-dihydroxypyrrolidin-1-yl]-N-(1,1,1,3,3,3-hexafluoropropan-2-yl)-4-oxo-1,4-dihydro-1,8-naphthyridine-3-carboxamide] | 275 | 100 | 
11 | CC[C@H](NC(=O)c1cn(-c2c(F)cncc2F)c2nc(N3CCNC3=O)ccc2c1=O)C(F)(F)F [Example 128, 1-(3,5-Difluoropyridin-4-yl)-4-oxo-7-(2-oxoimidazolidin-1-yl)-N-[(2S)-1,1,1-trifluorobutan-2-yl]-1,4-dihydro-1,8-naphthyridine-3-carboxamide] | 520 | 89 | 
12 | O=C(NC(C(F)(F)F)C(F)(F)F)c1cn(-c2ncc(F)cc2F)c2nc(N3CC4CC4(O)C3)ccc2c1=O (single isomer, unassigned) [Example 59, 1-(3,5-Difluoropyridin-2-yl)-N-(1,1,1,3,3,3-hexafluoropropan-2-yl)-7-[1-hydroxy-3-azabicyclo[3.1.0]hex-3-yl]-4-oxo-1,4-dihydro-1,8-naphthyridine-3-carboxamide] | 23 |  | 99.00
13 | CC(NC(=O)c1cn(-c2ncc(F)cc2F)c2nc(N3CCC(CO)(CO)CC3)ccc2c1=O)C(F)(F)C(F)(F)F (single isomer, unassigned) [Example 185, 7-[4,4-Bis(hydroxymethyl)piperidin-1-yl]-1-(3,5-difluoropyridin-2-yl)-4-oxo-N-[3,3,4,4,4-pentafluorobutan-2-yl]-1,4-dihydro-1,8-naphthyridine-3-carboxamide] | 121 | 100 | 
14 | CC[C@H](NC(=O)c1cn(-c2c(F)cncc2F)c2nc(N3C[C@@H](O)[C@H](O)C3)ccc2c1=O)C(F)(F)F [Example 118, 1-(3,5-Difluoropyridin-4-yl)-7-[(3R,4R)-3,4-dihydroxypyrrolidin-1-yl]-4-oxo-N-[(2S)-1,1,1-trifluorobutan-2-yl]-1,4-dihydro-1,8-naphthyridine-3-carboxamide] | 500 | 100 | 
15 | CC(NC(=O)c1cn(-c2ncc(F)cc2F)c2nc(N3CCCC[C@@H]3CO)ccc2c1=O)C(F)(F)C(F)(F)F (single isomer, unassigned) [Example 176] | 28 | 100 | 
16 | CC[C@H](NC(=O)c1cn(-c2ncc(F)cc2F)c2nc(N3CC(O)(C(F)(F)F)C3)ccc2c1=O)C(F)(F)F [Example 131, 1-(3,5-Difluoropyridin-2-yl)-7-[3-hydroxy-3-(trifluoromethyl)azetidin-1-yl]-4-oxo-N-[(2S)-1,1,1-trifluorobutan-2-yl]-1,4-dihydro-1,8-naphthyridine-3-carboxamide] | 108 | 95.5 | 
17 | CCC(COC(F)(F)F)NC(=O)c1cn(-c2ncc(F)cc2F)c2nc(N3C[C@@H](C)NC3=O)ccc2c1=O (stereo partly drawn) [Example 141, 1-(3,5-Difluoropyridin-2-yl)-7-[(4R)-4-methyl-2-oxoimidazolidin-1-yl]-4-oxo-N-[1-(trifluoromethoxy)butan-2-yl]-1,4-dihydro-1,8-naphthyridine-3-carboxamide] | 18 | 95 | 
18 | CCC(NC(=O)c1cn(-c2ncc(F)cc2F)c2nc(N3CCNC3=O)ccc2c1=O)C(F)(F)C(F)(F)F (racemic) [Example 164, 1-(3,5-Difluoropyridin-2-yl)-4-oxo-7-(2-oxoimidazolidin-1-yl)-N-[1,1,1,2,2-pentafluoropentan-3-yl]-1,4-dihydro-1,8-naphthyridine-3-carboxamide] | 14 | 100 | 
19 | O=C(NC1CCC1)c1cn(-c2ncc(F)cc2F)c2nc(N3C[C@@H](O)[C@H](O)C3)ccc2c1=O [Example 168, N-Cyclobutyl-1-(3,5-difluoropyridin-2-yl)-7-[(3R,4R)-3,4-dihydroxypyrrolidin-1-yl]-4-oxo-1,4-dihydro-1,8-naphthyridine-3-carboxamide] | 2850 | 84.5 | 
20 | CC(NC(=O)c1cn(-c2ncc(F)cc2F)c2nc(N3CC4(COC4)C3)ccc2c1=O)C(F)(F)C(F)(F)F (single isomer, unassigned) [Example 181, 1-(3,5-Difluoropyridin-2-yl)-7-(2-oxa-6-azaspiro[3.3]hept-6-yl)-4-oxo-N-[3,3,4,4,4-pentafluorobutan-2-yl]-1,4-dihydro-1,8-naphthyridine-3-carboxamide] | 220 | 100 | 
21 | CC[C@@H](NC(=O)c1cn(-c2ncccc2F)c2nc(N3CC4CC4(O)C3)ccc2c1=O)C(F)(F)F (mixture of isomers) [Example 134, 1-(3-Fluoropyridin-2-yl)-7-[1-hydroxy-3-azabicyclo[3.1.0]hex-3-yl]-4-oxo-N-[(2R)-1,1,1-trifluorobutan-2-yl]-1,4-dihydro-1,8-naphthyridine-3-carboxamide] | 105 | 100 | 
22 | O=C(NC(C(F)(F)F)C(F)(F)F)c1cn(-c2ncc(F)cc2F)c2nc(N3CCC[C@@H]3CO)ccc2c1=O [Example 180, 1-(3,5-Difluoropyridin-2-yl)-N-(1,1,1,3,3,3-hexafluoropropan-2-yl)-7-[(2R)-2-(hydroxymethyl)pyrrolidin-1-yl]-4-oxo-1,4-dihydro-1,8-naphthyridine-3-carboxamide] | 89 | 100 | 
23 | CCC(NC(=O)c1cn(-c2ncc(F)cc2F)c2nc(N3C[C@@H](O)CC3=O)ccc2c1=O)C(F)(F)C(F)(F)F (mixture of isomers) [Example 92, 1-(3,5-Difluoropyridin-2-yl)-7-[(4S)-4-hydroxy-2-oxopyrrolidin-1-yl]-4-oxo-N-[1,1,1,2,2-pentafluoropentan-3-yl]-1,4-dihydro-1,8-naphthyridine-3-carboxamide] | 17 | 100 | 
24 | CC(NC(=O)c1cn(-c2ncc(F)cc2F)c2nc(N3CC(CO)(CO)C3)ccc2c1=O)C(F)(F)C(F)(F)F (single isomer, unassigned) [Example 183, 7-[3,3-Bis(hydroxymethyl)azetidin-1-yl]-1-(3,5-difluoropyridin-2-yl)-4-oxo-N-[3,3,4,4,4-pentafluorobutan-2-yl]-1,4-dihydro-1,8-naphthyridine-3-carboxamide] | 53 | 100 | 
